Experiments:
[1] = In vitro release study (dialysis bag, 4% BSA); format: physicochemical; conditions: dialysis bag in 300 mL 4% BSA, 37° C.
Procedure: An in vitro release study was performed to determine the in vitro release characteristic of free CBD and the above micelle encapsulated CBD formulations (Micellar CBD (DP 23) and d Micellar CBD (DP 15)).
Each of three formulations shown in Table 4 having equal concentrations of CBD were placed in separate Spectra/Por dialysis bags (molecular weight cut-off=12,000-14,000 g mol-1). The dialysis bags were sealed with clips and placed in a beaker with 300 mL 4% bovine serum albumin (BSA), then in a 37° C. shaker. At time 0 and 24 hours, the volume within each bag was measured, and a sample of each solution was taken from inside the dialysis bag and quantified by HPLC. The protocol that was used is described in Aliabadi et al, Journal of Controlled Release (2005) 104 (2), 301-311, which protocol is incorporated herein by reference.

[2] = Pharmacokinetic animal study, subcutaneous injection; conditions: SC, single dose 10 mg/kg, rats, plasma CBD
Procedure: Cannulated adult male Sprague-Dawley rats were used for the pharmacokinetic experiments.
Rats were divided into 2 groups (n=4/group). Groups 1 and 2 received CBD either encapsulated in PEO-PBCL23 (referred to herein as Micellar CBD (DP 23)) or in free form (CBD dissolved in polyethylene glycol 400 (also referred to as PEG 400)). The administration was by way of subcutaneous injection in the right flank. A single dose of 10 mg/kg was administered to the rats of all groups.
Serial blood samples (200 μL) were collected using jugular vein catheters prior to CBD administration and at 0.25, 0.5, 0.75, 1, 2, 4, 6, 12 and 24, 48 and 72 hours post CBD administration. Plasma was separated (by using a centrifuge) from the samples and kept at −20° C. until it was analyzed for drug content.
100 μL of plasma samples were analyzed for CBD content as follows. The samples were spiked with internal standard (CBD d3 1 μg/mL) and 400 μL of cold acetonitrile was added to each sample. The mixture was vortexed for 1 minute and then 400 μL of water was added and the resulting mixture was further vortexed for 1 minute. Then 4 mL n-Hexane was added and the resulting mixture further vortexed for 5 minutes. The samples were centrifuged at 1160×g for 15 minutes and the organic phase layers were separated and transferred to clean tubes and evaporated to dryness. The residue was then analyzed for CBD content using a liquid chromatography-mass spectrometry (LC-MS) method involving the use of a Waters Quattro Micro triple quadrupole mass spectrometer. The residue samples were ran in MRM mode using the 315 to 193 transition for CBD, 318 to 196 for Cannabidiol-D3 solution and 311 to 223 for Cannabinol (CBN). A C18 Agilent Poroshell 120 EC column (2.1×50 mm; 2.7 μm particles) was used. The mobile phase consisted of 0.1% formic acid in HPLC-grade water (Solution A) and 0.1% formic acid in HPLC-grade acetonitrile (Solution B). A gradient elution was programmed to co33mmence with 40% Solution B for post-injection followed by gradual increase in 3 min. of Solution B to 95%. […] The flow rate was 0.3 mL/min. and 2 μL was injected. The lowest limit of quantification was set at 10 ng/mL.
The total amount of CBD that entered the bloodstream (AUC0-t; 72 h) was calculated using the trapezoidal rule from 0 to the last measured plasma concentration (Clast). The terminal elimination rate constant (β) was estimated using the linear least square regression of the log-linear phase of the concentration-time. Cmax and Tmax were the highest observed concentration and corresponding sampling time point.

Structure (SMILES): C=C(C)[C@@H]1CCC(C)=C[C@H]1c1c(O)cc(CCCCC)cc1O [Free-CBD, Cannabidiol]
- % CBD released after 24 hours [1]: rapid release
- % CBD released after 24 hours ([1]; listed as Free-CBD dissolved in acetonitrile): 70.65%
- AUC0-6 [2]: 209.45 ± 210.52 ng·h/mL
- AUC0-72 h [2]: 687.12 ± 217.39 ng·h/mL
- Cmax [2]: 94 ± 86.27 ng/mL
- tmax [2]: 9 ± 10.13 h
